Patent US8338422B2, “Indolin-2-ones and aza-indolin-2-ones” (Janssen Pharmaceutica NV, priority 2007, dated 2012)
Values joined by “and” are separate entries in the source; they are usually repeats but may differ in a detail not shown here. Identical values can stand only once.

Tests used:
PC-3 = assay: Cellular proliferation assay (Alamar blue), PC-3; assay type: cell-based; conditions: PC-3 cells, 72 hours with compound, 10% FCS; for IC50: Homo sapiens, PC-3, 72 h, read-out: pIC50 PC-3 (converted)
Experimental: (§1) […] functional properties of these compounds was tested in cellular proliferation assays on a panel of different cell lines in the presence of 10% FCS serum (37° C. and 5% (v/v) CO2). In a first step these cells were seeded and incubated for 24 hours in the absence of compound. In the second step the cells were incubated for 72 hours with the compounds to be tested for 72 hours. The viable cell number was finally assessed in a standard Alamar blue cell viability assay.
(§2) The viable cell number was assessed by incubation for either 4 h (HCT-116, H1299, H460) 6 h (SKOV3, HT29, U87-MG, Colo205) or 24 h (A2780, PC3, MDA-MB-231, A549, MCF-7) with Alamar blue (Resazurin 9 μg/ml, K-Ferrocyanide 90 μM K-Ferricyanide 90 μM) and the converted fluorescent product was quantified on a fluorescent plate readed (544 nm/590 nm). Effect of the compounds is calculated as of on control cells.

CDK1/CyclinB (h) = CDK1/CyclinB (h) (Homo sapiens, UniProt P06493); assay: CDK1/CyclinB human kinase assay (FRET); assay type: biochemical; conditions: for IC50: read-out: CDK1 pIC50 (converted)
CDK1/CyclinB (h), sequence (P06493 whole entry): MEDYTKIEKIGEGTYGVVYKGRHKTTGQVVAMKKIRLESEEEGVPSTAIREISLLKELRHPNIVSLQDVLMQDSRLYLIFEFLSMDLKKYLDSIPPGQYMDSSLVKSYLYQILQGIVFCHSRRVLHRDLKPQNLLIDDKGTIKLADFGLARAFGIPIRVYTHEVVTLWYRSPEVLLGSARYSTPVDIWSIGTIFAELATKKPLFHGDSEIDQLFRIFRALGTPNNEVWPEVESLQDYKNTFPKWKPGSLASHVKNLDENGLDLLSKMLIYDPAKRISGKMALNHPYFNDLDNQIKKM
CDK1/CyclinB (h), sequence (P14635 whole entry partner): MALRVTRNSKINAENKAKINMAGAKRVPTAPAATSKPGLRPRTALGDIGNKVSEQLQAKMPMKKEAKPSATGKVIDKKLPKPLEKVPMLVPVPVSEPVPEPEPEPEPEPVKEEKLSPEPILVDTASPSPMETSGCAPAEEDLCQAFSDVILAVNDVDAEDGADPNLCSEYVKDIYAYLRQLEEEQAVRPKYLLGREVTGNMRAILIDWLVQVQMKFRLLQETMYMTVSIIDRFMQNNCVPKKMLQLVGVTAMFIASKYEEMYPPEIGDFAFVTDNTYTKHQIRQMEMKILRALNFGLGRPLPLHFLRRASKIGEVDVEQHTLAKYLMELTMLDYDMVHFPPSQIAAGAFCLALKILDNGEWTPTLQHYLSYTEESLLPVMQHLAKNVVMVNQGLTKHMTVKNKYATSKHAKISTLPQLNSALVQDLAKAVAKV
Experimental: (§3) The in vitro inhibition of a panel of kinases was assessed using either the scintillation proximity assay (SPA) as described by Cook, N. D. et al., Advances in Experimental Medicine and Biology (1991), 36; p. 525-528; or the Fluorescence Resonance Energy Transfer (FRET) technology as described by Rodems, S. M. et al., Assay Drug Develop. Technol. (2002), 1; p. 9-19.
In the FRET technology the activity of the kinase of interest is measured using an appropriate substrate that is labeled with two fluorophores (coumarin and fluorescein). Phosphorylation is determined using a developing reagent comprising a protease that recognizes and cleaves nonphosphorylated peptides. Cleavage will disturb the FRET between the fluorescein and coumarin on the peptide. Uncleaved, phosphorylated peptides maintain the FRET signal. A ratiometric readout of the donor emission over the acceptor emission quantitates the reaction process.
(§4) All kinases are pre-diluted to a 10× working concentration prior to addition into the assay. The composition of the dilution buffer for each kinase is detailed below.
In a final reaction volume of 10 μl, CDK1/CyclinB (h) (0.2 μg/ml) is incubated with 50 mM Hepes pH 7.5, 10 mM MgCl2, 1 mM EGTA, 0.01% Brij-35, 2 μM Z'lyte Ser/Thr peptide 12 and 10 μM ATP (Invitrogen's FRET assay). After incubation of 60 minutes at room temperature, the reaction is stopped by addition of 5 μL development reagent containing protease mix. After 60 minutes room temperature the development reaction is stopped by adding 5 μl stop solution. The plate is then read in fluorescence plate reader with excitation: 390 nm and dual emission: 460 and 538 nm. Emission ratio is determined to the formula=Emission signal intensity at 460 nm/Emission signal intensity at 538 nm.

A2780 = assay: Cellular proliferation assay (Alamar blue), A2780; assay type: cell-based; conditions: A2780 cells, 72 hours with compound, 10% FCS; for IC50: Homo sapiens, A2780, 72 h, read-out: pIC50 A2780 (converted)
Experimental: as §1, §2

AuroraB (h) = AuroraB (h) (Homo sapiens, UniProt Q96GD4); assay: Aurora-B human kinase assay (SPA); assay type: biochemical; conditions: for IC50: read-out: AuroraB pIC50 (converted)
AuroraB (h), sequence (Q96GD4 whole entry): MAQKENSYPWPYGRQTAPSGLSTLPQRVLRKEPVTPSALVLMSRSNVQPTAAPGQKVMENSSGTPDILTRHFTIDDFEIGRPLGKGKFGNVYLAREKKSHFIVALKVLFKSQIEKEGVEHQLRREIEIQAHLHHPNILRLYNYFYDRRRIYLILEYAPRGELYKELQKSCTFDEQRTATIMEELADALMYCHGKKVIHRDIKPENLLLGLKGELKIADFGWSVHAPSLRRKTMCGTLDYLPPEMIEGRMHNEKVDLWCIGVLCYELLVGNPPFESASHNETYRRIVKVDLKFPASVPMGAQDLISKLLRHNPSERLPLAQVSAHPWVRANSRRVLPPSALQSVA
Experimental: as §3
(§5) In the SPA technology the activity of the kinase of interest is measured using an appropriate biotinylated substrate that is incubated with the aforementioned kinase protein in the presence of (^33P) radiolabeled ATP. (^33P) Phosporylation of the substrate is subsequently measured through binding of the phosphorylated substrate to streptavidine coated beads that are based on the scintillant poly(vinyl toluene) (PVT-Beads). The scintillation intensity is detected by imaging on Leadseeker.
as §4
In a final reaction volume of 30 μl, AuroraB (h) (0.5 μg/ml) is incubated with 60 mM Hepes pH 7.5, 3 mM MgCl2, 3 mM MnCl2, 3 μM Na3VO4, 0.05 mg/ml PEG, 2 mM DTT, 3 μM Biotin-[…]-OH, 0.5 μM ATP and 2.2 nM [γ-^33P-ATP] (6.8 μCi/ml). After incubation of 60 minutes at room temperature, the reaction is stopped by addition of 40 μL of stop solution containing 8.7 mM EDTA, BSA 0.17%, 0.17% Triton X-100, 5 mg/ml SPA beads (GE-healthcare). The plate is centriguged and read for Scintillation imaging on Leadseeker.

GSK3β (h) = GSK3β (h) (Homo sapiens, UniProt P49841); assay: GSK-3β human kinase assay (SPA); assay type: biochemical; conditions: for IC50: read-out: GSK3B pIC50 (converted)
GSK3β (h), sequence (P49841 whole entry): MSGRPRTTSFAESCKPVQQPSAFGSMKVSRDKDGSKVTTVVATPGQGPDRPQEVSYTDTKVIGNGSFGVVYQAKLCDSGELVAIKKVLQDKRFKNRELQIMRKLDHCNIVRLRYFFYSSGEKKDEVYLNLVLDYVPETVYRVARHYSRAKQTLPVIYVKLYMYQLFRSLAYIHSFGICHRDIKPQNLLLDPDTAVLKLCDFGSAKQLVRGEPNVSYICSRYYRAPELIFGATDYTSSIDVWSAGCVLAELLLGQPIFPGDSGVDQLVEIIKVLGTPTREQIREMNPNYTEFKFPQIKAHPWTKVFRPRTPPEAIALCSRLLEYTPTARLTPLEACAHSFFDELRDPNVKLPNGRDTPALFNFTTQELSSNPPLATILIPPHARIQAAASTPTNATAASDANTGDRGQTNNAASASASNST
Experimental: as §3, §5, §4
In a final reaction volume of 30 μl, GSK3β (h) (1 μg/ml) is incubated with 25 mM Tris pH 7.4, 10 mM MgCl2, 1 mM DTT, 1 μM peptide Biotin-KRREILSRRPSYR-OH, 1 μM ATP and 2 nM [γ-^33P-ATP] (6.0 μCi/ml). After incubation of 60 minutes at room temperature, the reaction is stopped by addition of […] of stop solution containing 8.7 mM EDTA, BSA 0.17%, 0.17% Triton X-100, 6.25 mg/ml SPA beads (GE-healthcare). The plate is centriguged and read for Scintillation imaging on Leadseeker.

U87MG = assay: Cellular proliferation assay (Alamar blue), U87MG; assay type: cell-based; conditions: U87MG cells, 72 hours with compound, 10% FCS; for IC50: Homo sapiens, U-87 MG, 72 h, read-out: pIC50 U87MG (converted)
Experimental: as §1, §2

H1299 = assay: Cellular proliferation assay (Alamar blue), H1299; assay type: cell-based; conditions: H1299 cells, 72 hours with compound, 10% FCS; for IC50: Homo sapiens, NCI-H1299, 72 h, read-out: pIC50 H1299 (converted)
Experimental: as §1, §2

PLK4 (h) = PLK4 (h) (Homo sapiens, UniProt O00444); assay: PLK-4 human kinase assay (SPA); assay type: biochemical; conditions: for IC50: read-out: PLK4 pIC50 (converted)
PLK4 (h), sequence (O00444 whole entry): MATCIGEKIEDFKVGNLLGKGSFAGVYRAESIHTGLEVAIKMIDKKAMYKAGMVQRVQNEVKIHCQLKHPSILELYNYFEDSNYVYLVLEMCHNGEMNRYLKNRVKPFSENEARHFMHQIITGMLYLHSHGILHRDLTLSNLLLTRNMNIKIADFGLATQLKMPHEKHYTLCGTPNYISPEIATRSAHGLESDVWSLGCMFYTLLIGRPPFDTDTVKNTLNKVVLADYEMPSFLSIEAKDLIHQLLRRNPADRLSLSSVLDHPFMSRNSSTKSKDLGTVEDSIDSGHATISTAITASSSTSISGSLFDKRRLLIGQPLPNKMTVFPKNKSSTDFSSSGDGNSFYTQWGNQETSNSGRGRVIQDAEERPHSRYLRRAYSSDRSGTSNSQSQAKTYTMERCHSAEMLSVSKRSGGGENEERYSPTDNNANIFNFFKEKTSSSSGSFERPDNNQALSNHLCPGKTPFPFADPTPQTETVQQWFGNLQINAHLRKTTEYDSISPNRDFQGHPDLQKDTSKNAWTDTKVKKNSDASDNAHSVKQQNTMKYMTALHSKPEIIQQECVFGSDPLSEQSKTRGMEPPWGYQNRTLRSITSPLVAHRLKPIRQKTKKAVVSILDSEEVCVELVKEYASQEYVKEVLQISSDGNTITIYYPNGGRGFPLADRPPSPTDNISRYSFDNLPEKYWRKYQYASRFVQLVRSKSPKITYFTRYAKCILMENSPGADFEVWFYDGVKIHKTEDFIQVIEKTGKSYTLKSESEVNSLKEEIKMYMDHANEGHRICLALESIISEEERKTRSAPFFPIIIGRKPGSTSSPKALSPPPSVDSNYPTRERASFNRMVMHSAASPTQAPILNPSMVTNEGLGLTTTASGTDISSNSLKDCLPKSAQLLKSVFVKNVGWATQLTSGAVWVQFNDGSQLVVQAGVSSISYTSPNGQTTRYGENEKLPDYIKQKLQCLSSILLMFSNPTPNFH
Experimental: as §3, §5, §4
In a final reaction volume of 30 μl PLK4 (h) (19 μg/ml) is incubated with 50 mM Hepes pH 8.0, 10 mM MgCl2, 50 mM NaCl, 1 mM NaF, 1 mM DTT, 10 μM of peptide Biotin-RPRGQRDSSYYWE-OH, 1 μM ATP and 2 nM [γ-^33P-ATP] (6.0 μCi/ml). After incubation of 60 minutes at room temperature, the reaction is stopped by addition of 40 μl, of stop solution containing 8.7 mM EDTA, BSA 0.17%, 0.17% Triton X-100, 1.7 mg/ml SPA beads (GE-healthcare). The plate is centriguged and read for Scintillation imaging on Leadseeker.

HCT-116 = assay: Cellular proliferation assay (Alamar blue), HCT-116; assay type: cell-based; conditions: HCT-116 cells, 72 hours with compound, 10% FCS; for IC50: Homo sapiens, HCT-116, 72 h, read-out: pIC50 HCT-116 (converted)
Experimental: as §1, §2

MDA/MB231 = assay: Cellular proliferation assay (Alamar blue), MDA/MB231; assay type: cell-based; conditions: MDA/MB231 cells, 72 hours with compound, 10% FCS; for IC50: Homo sapiens, MDA-MB-231, 72 h, read-out: pIC50 MDA/MB231 (converted)
Experimental: as §1, §2

| SMILES | IC50 (CDK1/CyclinB (h)) [µM] | IC50 (A2780) [µM] | IC50 (AuroraB (h)) | IC50 (GSK3β (h)) [µM] | IC50 (PLK4 (h)) | CDK1 pIC50 (CDK1/CyclinB (h)) | AuroraB pIC50 (AuroraB (h)) | GSK3B pIC50 (GSK3β (h)) | PLK4 pIC50 (PLK4 (h)) | also measured |
| --- | --- | --- | --- | --- | --- | --- | --- | --- | --- | --- |
| CN1CCN(c2ccc3cc2CN(C)CCCC(=O)N(C)CCCNc2ncnc4c2/C(=C/N3)C(=O)N4)CC1 [Compound 140] | 1.55 | 1.23 | > 10 µM | 0.0513 | 0.525 µM |  |  |  |  | IC50 (PC-3): 6.17 µM; IC50 (U87MG): 0.501 µM; IC50 (H1299): 2.63 µM |
| COc1ccc2cc1OCC(=O)N[C@H](Cc1ccccc1)CN(C)CCNc1ncnc3c1/C(=C/N2)C(=O)N3 [Compound 191] |  | 2.45 | 3.39 µM and 3.55 µM and > 10 µM |  | 1.66 µM and 2.09 µM and > 10 µM |  |  |  |  | pIC50 HCT-116 (HCT-116): 5.55 and 5.77; IC50 (HCT-116): 2.4 µM; pIC50 A2780 (A2780): 5.47; IC50 (H1299): > 10 µM |
| CN1CCCNc2ncnc3c2/C(=C/Nc2ccc(Cl)c(c2)OCCCCC1=O)C(=O)N3 [Compound 61] | > 10 | > 10 | 0.0513 µM | 0.0631 | 1.78 µM |  |  |  |  | IC50 (PC-3): > 10 µM; IC50 (HCT-116): 8.71 µM; IC50 (H1299): > 10 µM; IC50 (MDA/MB231): > 10 µM |
| CC(C)N1CCCCCCC(=O)N2CCN(CC2)c2ncnc3c2/C(=C/Nc2ccc(F)c(c2)C1)C(=O)N3 [Compound 29] |  | > 10 |  |  | > 10 µM |  |  |  |  | IC50 (PC-3): > 10 µM; IC50 (HCT-116): > 10 µM; IC50 (U87MG): > 10 µM; IC50 (MDA/MB231): > 10 µM |
| CN1CCCNc2ncnc3c2/C(=C/Nc2cccc(c2)OCCCCCCC1=O)C(=O)N3 [Compound 69] | > 10 | > 10 | 5.01 µM | 1.07 | 3.39 µM |  |  |  |  | IC50 (HCT-116): > 10 µM; IC50 (U87MG): > 10 µM; IC50 (H1299): > 10 µM |
| COc1nc2c3c(n1)NC(=O)/C3=C\Nc1ccc(Cl)c(c1)OCCCCC(=O)N(C)CCCN2 [Compound 111] |  | 3.24 | > 10 µM | 3.09 |  |  |  |  |  | IC50 (PC-3): 6.46 µM; IC50 (HCT-116): 3.63 µM; IC50 (U87MG): 2.69 µM; IC50 (H1299): > 10 µM |
| O=C1Nc2ncnc3c2/C1=C/Nc1ccc(Cl)c(c1)OCCCCCC(=O)N1CCN3CC1 [Compound 25] |  | > 10 |  |  | > 10 µM |  |  |  |  | IC50 (PC-3): > 10 µM; IC50 (U87MG): > 10 µM; IC50 (MDA/MB231): > 10 µM |
| O=C1CCCOc2cccc(c2)NC=C2C(=O)Nc3ncnc(c32)NCCCN1 (mixture of isomers) [Compound 142] |  |  |  |  |  | 6.83 | 6.93 | 7.7 | 7.3 | pIC50 PC-3 (PC-3): 5.75; pIC50 A2780 (A2780): <5; pIC50 U87MG (U87MG): 5.19; pIC50 H1299 (H1299): 6.14; pIC50 MDA/MB231 (MDA/MB231): <5 |
| COc1ccc2cc1OCCCC(=O)NCCCNc1ncnc3c1C(=CN2)C(=O)N3 (mixture of isomers) [Compound 146] |  |  |  |  |  | 7.21 | 7.24 | 7.56 | 7.34 | pIC50 PC-3 (PC-3): 6.22; pIC50 HCT-116 (HCT-116): 6.15; pIC50 A2780 (A2780): 5.83; pIC50 U87MG (U87MG): 5.80; pIC50 H1299 (H1299): 6.41 |
| CN1CCN(c2ccc3cc2OCCCCCC(=O)N(C)CCNc2ncnc4c2/C(=C/N3)C(=O)N4)CC1 [Compound 141] | 7.59 |  | > 10 µM | 0.447 | 0.692 µM |  |  |  |  |  |
| CN1CCN(c2ccc3cc2OCCCC(=O)N(C)CCCNc2ncnc4c2C(=CN3)C(=O)N4)CC1 (mixture of isomers) [Compound 133] |  |  |  |  |  | 6.8 | 5.81 | 6.95 | 7.21 | pIC50 PC-3 (PC-3): 5.02; pIC50 HCT-116 (HCT-116): 6.16; pIC50 A2780 (A2780): 6.00; pIC50 U87MG (U87MG): 5.65; pIC50 H1299 (H1299): 5.17 |
| CN1CCCNc2ncnc3c2/C(=C/Nc2ccc(Cl)c(c2)OCCCCCC1=O)C(=O)N3 [Compound 64] | > 10 |  | 0.794 µM | 0.0427 | 2.14 µM |  |  |  |  |  |
| COc1ccc2cc1CN(C)CCCCCC(=O)N(C)CCCN(C)c1ncnc3c1C(=CN2)C(=O)N3 (mixture of isomers) [Compound 89] |  |  |  |  |  | <5 | <5 | <5 | <5 |  |
| CN1CC(=O)N2CCN(CC2)c2cccc3c2/C(=C/Nc2cccc(c2)S1(=O)=O)C(=O)N3 [Compound 2] | 5.62 |  | > 10 µM | 1.17 | 4.57 µM |  |  |  |  |  |
| CN1CCCNc2ncnc3c2C(=CNc2ccc(Cl)c(c2)OCCCC1=O)C(=O)N3 (mixture of isomers) [Compound 63] |  |  |  |  |  | 6.1 | 7.01 | 7.68 | 6.52 |  |
| CN1CCCCC(=O)N(C)CCCN(C)c2ncnc3c2/C(=C/Nc2ccc(Cl)c(c2)C1)C(=O)N3 [Compound 91] | > 10 |  | > 10 µM | 0.977 | > 10 µM |  |  |  |  |  |
| CN1CCCN(C)c2ncnc3c2C(=CNc2cccc(c2)OCCCC1=O)C(=O)N3 (mixture of isomers) [Compound 88] |  |  |  |  |  | <5 | 5.33 | 6.26 | 5.85 |  |
